Where two headings read alike, the source gives them in different places.
Legend:
KB cells [1] = test: Cytotoxicity assay (CellTiter-Glo) in KB cells; type: cell-based; conditions: 48 hours post drug incubation, cell viability by CellTiter-Glo, triplicate, read-out: Chromenone cytotoxicity IC50, KB
Protocol: (§1) Jurkat and L5178Y cells were cultured in RPMI 1640 (ATCC), HL60 cells were cultured in Iscove's Modified Dulbecco's Medium (IMDM, ATCC), KB and MCF7 cells were cultured in Eagles Minimum Essential Medium (EMEM, ATCC), and SKOV3 cells in McCoy's 5a Medium (ATCC) supplemented with 10% Heat Inactivated Fetal Bovine Serum (FBS), and Penicillin and Streptomycin (P/S) at 37° C. in a 5% CO2 incubator.
(§2) Proliferating cells were seeded at approximately 20×10^3 cells per 50 μL per well into 96 well plates using a MultiFlo FX multi-mode dispenser (BioTek). On reaching ≈40% cell density, the cells were then incubated with varying concentrations (195 nM to 200 μM final) of test samples using a Biomek FXP Automated Workstation (Beckman Coulter). 48 hours post drug incubation, cell viability was determined using Promega's CellTiter-Glo Luminescent Cell Viability Assay according to the manufacturer's protocol on a plate reader (EnVision from PerkinElmer) in Luminescence mode. In each experiment, each unique condition (i.e., different sample type and concentration) was tested in triplicate. The percentage of test sample induced toxicity was calculated with respect to DMSO treated cells and graphed to give dose response curves. IC50 values for each treatment were calculated using Graph-Pad Prism 8.0 Software.

L5178Y cells [2] = test: Cytotoxicity assay (CellTiter-Glo) in L5178Y cells; type: cell-based; conditions: 48 hours post drug incubation, cell viability by CellTiter-Glo, triplicate
Protocol: as §1
as §2, with “The percentage of test sample induced toxicity was calculated with respect to DMSO treated cells and graphed to give dose response curves.” left out

Jurkat cells [3] = test: Cytotoxicity assay (CellTiter-Glo) in Jurkat cells; type: cell-based; conditions: for Cytotoxicity in Jurkat screening (in words): cytotoxicity screening in Jurkat cell lines, FIG. 20
Protocol: as §1
as §2, with “The percentage of test sample induced toxicity was calculated with respect to DMSO treated cells and graphed to give dose response curves.” left out

HL60 cells [4] = test: Cytotoxicity assay (CellTiter-Glo) in HL60 cells; type: cell-based; conditions: 48 hours post drug incubation, cell viability by CellTiter-Glo, triplicate
Protocol: as §1
as §2, with “The percentage of test sample induced toxicity was calculated with respect to DMSO treated cells and graphed to give dose response curves.” left out

[5] = Cytotoxicity assay (CellTiter-Glo) in KB cells; type: cell-based; conditions: human, 48 hours post drug incubation, cell viability by CellTiter-Glo, triplicate, read-out: Chromenone cytotoxicity IC50, KB
Protocol: as §1, §2

[6] = Cytotoxicity assay (CellTiter-Glo) in L5178Y cells; type: cell-based; conditions: mouse, 48 hours post drug incubation, cell viability by CellTiter-Glo, triplicate, read-out: Chromenone cytotoxicity IC50, L5178Y
Protocol: as §1
as §2, with “The percentage of test sample induced toxicity was calculated with respect to DMSO treated cells and graphed to give dose response curves.” left out

[7] = Cytotoxicity assay (CellTiter-Glo) in HL60 cells; type: cell-based; conditions: human, 48 hours post drug incubation, cell viability by CellTiter-Glo, triplicate, read-out: Chromenone cytotoxicity IC50, HL60
Protocol: as §1
as §2, with “The percentage of test sample induced toxicity was calculated with respect to DMSO treated cells and graphed to give dose response curves.” left out

[8] = Cytotoxicity assay (CellTiter-Glo) in Jurkat cells; type: cell-based; conditions: human; Jurkat cells, 48 hours post drug incubation, cell viability by CellTiter-Glo, triplicate; read-out: Chromenone cytotoxicity IC50, Jurkat
Protocol: as §1
as §2, with “The percentage of test sample induced toxicity was calculated with respect to DMSO treated cells and graphed to give dose response curves.” left out

L5178Y cells [9] = conditions: read-out: Cytotoxicity IC50, L5178Y (natural product comparator), other cells 'Not available'; cited from earlier work
Jurkat cells [10] = conditions: comparator natural product, other cells 'Not available', read-out: Cytotoxicity IC50, Jurkat (natural product comparator); cited from earlier work
KB cells [11] = conditions: read-out: Cytotoxicity IC50, KB (natural product comparator), other cells 'Not available'; cited from earlier work
HL60 cells [12] = conditions: comparator natural product, other cells 'Not available', read-out: Cytotoxicity IC50, HL60 (natural product comparator); cited from earlier work

3-Acetyl-5-hydroxy-2-methyl-4H-1-benzopyran-4-one Dimer [Compound 43]
IC50 (KB cells [1]): > 50 µM | IC50 (L5178Y cells [2]; read-out: Chromenone cytotoxicity IC50, L5178Y): > 50 µM | IC50 (Jurkat cells [3]; Jurkat cells, 48 hours post drug incubation, cell viability by CellTiter-Glo, triplicate, read-out: Chromenone cytotoxicity IC50, Jurkat): 39 ± 1.1 µM | IC50 (HL60 cells [4]; read-out: Chromenone cytotoxicity IC50, HL60): > 50 µM

COC(=O)C(C)(C)c1cc(=O)c2c(O)ccc(-c3ccc(O)c4c(=O)cc(C(C)(C)C(=O)OC)oc34)c2o1 [Compound 28c, Dimethyl 2,2′-(5,5′-Dihydroxy-4,4′-dioxo-4H,4′H-[8,8′-bichromene]-2,2′-diyl)bis(2-methylpropanoate)]
IC50 at 48 h [5]: > 50 µM | Chromenone cytotoxicity IC50, L5178Y (L5178Y cells [2]): low micromolar range | IC50 at 48 h [6]: 23 µM | Cytotoxicity in Jurkat screening (in words) (Jurkat cells [3]): highest levels of cytotoxicity | Chromenone cytotoxicity IC50, HL60 (HL60 cells [4]): low micromolar range

O=c1cc(C2CCCO2)oc2c(-c3ccc(O)c4c(=O)cc(C5CCCO5)oc34)ccc(O)c12 (stereo not shown) [Compound 28e, 5,5′-Dihydroxy-2,2′-bis(tetrahydrofuran-2-yl)-4H,4′H-[8,8′-bichromene]-4,4′-dione]
IC50 at 48 h [5]: > 50 µM | IC50 at 48 h [6]: > 50 µM | Cytotoxicity in Jurkat screening (in words) (Jurkat cells [3]): highest levels of cytotoxicity | IC50 at 48 h [7]: > 50 µM

COC(=O)C(C)(C)c1cc(=O)c2c(OC)c(-c3ccc4oc(C(C)(C)C(=O)OC)cc(=O)c4c3OC)ccc2o1 [Compound 35c, Dimethyl 2,2′-(5,5′-Dimethoxy-4,4′-dioxo-4H,4′H-[6,6′-bichromene]-2,2′-diyl)bis(2-methylpropanoate)]
IC50 at 48 h [5]: 41 ± 1.1 µM | Cytotoxicity in Jurkat screening (in words) (Jurkat cells [3]): highest levels of cytotoxicity

COC(=O)C(C)(C)c1cc(=O)c2c(OC)ccc(-c3ccc(OC)c4c(=O)cc(C(C)(C)C(=O)OC)oc34)c2o1 [Compound 39c, Dimethyl 2,2′-(5,5′-Dimethoxy-4,4′-dioxo-4H,4′H-[8,8′-bichromene]-2,2′-diyl)bis(2-methylpropanoate)]
Chromenone cytotoxicity IC50, L5178Y (L5178Y cells [2]): low micromolar range | Cytotoxicity in Jurkat screening (in words) (Jurkat cells [3]): highest levels of cytotoxicity | Chromenone cytotoxicity IC50, HL60 (HL60 cells [4]): low micromolar range | IC50 at 48 h [7]: 24 µM

COc1ccc(-c2ccc(OC)c3c(=O)c(C(C)=O)c(C)oc23)c2oc(C)c(C(C)=O)c(=O)c12 [Compound 42, 3,3′-Diacetyl-5,5′-dimethoxy-2,2′-dimethyl-4H,4′H-[8,8′-bichromene]-4,4′-dione]
IC50 at 48 h [5]: > 50 µM | IC50 at 48 h [6]: > 50 µM | IC50 at 48 h [8]: > 50 µM

COc1ccc(-c2ccc(OC)c3c(=O)c(C(C)=O)c([C@@H](OC(C)=O)C(C)C)oc23)c2oc([C@@H](OC(C)=O)C(C)C)c(C(C)=O)c(=O)c12 [Compound 48c]
IC50 at 48 h [5]: > 50 µM | IC50 at 48 h [8]: > 50 µM | IC50 at 48 h [7]: > 50 µM

Dicerandrol C
IC50 (L5178Y cells [9]): 10 µM

Phomoxanthone A
IC50 (Jurkat cells [10]): 0.5 µM | IC50 (KB cells [11]): 0.99 µM | IC50 (L5178Y cells [9]): 0.3 µM

Phomoxanthone B
IC50 (KB cells [11]): 4.1 µM

Versixanthone F
IC50 (HL60 cells [12]): 1 µM
